# From PubChem BioAssay AID2060882 (Molecular Pharmacology Branch, DTP, NCI, 2025)
# Test system: 898857-211-R-J1-PDC complex spheroids, growth % test/control
# Test: Anticancer human tumor 898857-211-R-J1-PDC patient-derived melanoma cell line growth inhibition [RAS]
# Details: for IC50: curve of first compound; for viability, T/C: stronger effect = lower value
# Summary of the method: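 Tumour cells grown as complex spheroids with HUVEC endothelial cells and mesenchymal stem cells, treated with RAS pathway inhibitor combinations. Each agent spans half-log steps from near clinical Cmax, or 10 microM where Cmax is unknown.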
# [1] = second compound 0.000949 µM, first compound 0.00316 µM
# [2] = second compound 0.000949 µM, first compound 0.01 µM
# [3] = second compound 0.000949 µM, first compound 0.0316 µM
# [4] = second compound 0.000949 µM, first compound 0.1 µM
# [5] = second compound 0.000949 µM, first compound 0.316 µM
# [6] = second compound 0.000949 µM, first compound 1 µM
# [7] = second compound 0.003 µM, first compound 0.00316 µM
# [8] = second compound 0.003 µM, first compound 0.01 µM
# [9] = second compound 0.003 µM, first compound 0.0316 µM
# [10] = second compound 0.003 µM, first compound 0.1 µM
# [11] = second compound 0.003 µM, first compound 0.316 µM
# [12] = second compound 0.003 µM, first compound 1 µM
# [13] = second compound 0.00949 µM, first compound 0.00316 µM
# [14] = second compound 0.00949 µM, first compound 0.01 µM
# [15] = second compound 0.00949 µM, first compound 0.0316 µM
# [16] = second compound 0.00949 µM, first compound 0.1 µM
# [17] = second compound 0.00949 µM, first compound 0.316 µM
# [18] = second compound 0.00949 µM, first compound 1 µM
# [19] = second compound 0.03 µM, first compound 0.00316 µM
# [20] = second compound 0.03 µM, first compound 0.01 µM
# [21] = second compound 0.03 µM, first compound 0.0316 µM
# [22] = second compound 0.03 µM, first compound 0.1 µM
# [23] = second compound 0.03 µM, first compound 0.316 µM
# [24] = second compound 0.03 µM, first compound 1 µM
# [25] = second compound 0.0949 µM, first compound 0.00316 µM
# [26] = second compound 0.0949 µM, first compound 0.01 µM
# [27] = second compound 0.0949 µM, first compound 0.0316 µM
# [28] = second compound 0.0949 µM, first compound 0.1 µM
# [29] = second compound 0.0949 µM, first compound 0.316 µM
# [30] = second compound 0.0949 µM, first compound 1 µM
# [31] = second compound 0.3 µM, first compound 0.00316 µM
# [32] = second compound 0.3 µM, first compound 0.01 µM
# [33] = second compound 0.3 µM, first compound 0.0316 µM
# [34] = second compound 0.3 µM, first compound 0.1 µM
# [35] = second compound 0.3 µM, first compound 0.316 µM
# [36] = second compound 0.3 µM, first compound 1 µM
# 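Also: spheroids exposed to compound for seven days before readout.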
# 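For viability, T/C in this document: 100% = DMSO vehicle control wells.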
structure (smiles),measurement,setting,value
C=CC(=O)N1CCN(c2nc(OCC3CCCN3C)nc3c(F)c(-c4nc(N)cc(C)c4C(F)(F)F)c(Cl)cc23)C(C)C1 (stereo not drawn) + CCn1c(-c2cc(N3CCN(C)CC3)cnc2C(C)OC)c2c3cc(ccc31)-c1csc(n1)CC(NC(=O)C1CC1C)C(=O)N1CCCC(N1)C(=O)OCC(C)(C)C2,IC50,second compound 0.000949 µM,> 1000 nM
same,IC50,second compound 0.003 µM,> 1000 nM
same,IC50,second compound 0.00949 µM,> 1000 nM
same,IC50,second compound 0.03 µM,> 1000 nM
same,IC50,second compound 0.0949 µM,> 1000 nM
same,IC50,second compound 0.3 µM,> 1000 nM
same,"viability, T/C",[1],124%
same,"viability, T/C",[2],106%
same,"viability, T/C",[3],105%
same,"viability, T/C",[4],111%
same,"viability, T/C",[5],127%
same,"viability, T/C",[6],126%
same,"viability, T/C",[7],99.6%
same,"viability, T/C",[8],104%
same,"viability, T/C",[9],116%
same,"viability, T/C",[10],101%
same,"viability, T/C",[11],114%
same,"viability, T/C",[12],108%
same,"viability, T/C",[13],101%
same,"viability, T/C",[14],112%
same,"viability, T/C",[15],98.9%
same,"viability, T/C",[16],101%
same,"viability, T/C",[17],118%
same,"viability, T/C",[18],104%
same,"viability, T/C",[19],106%
same,"viability, T/C",[20],112%
same,"viability, T/C",[21],103%
same,"viability, T/C",[22],121%
same,"viability, T/C",[23],110%
same,"viability, T/C",[24],110%
same,"viability, T/C",[25],111%
same,"viability, T/C",[26],117%
same,"viability, T/C",[27],117%
same,"viability, T/C",[28],116%
same,"viability, T/C",[29],120%
same,"viability, T/C",[30],110%
same,"viability, T/C",[31],123%
same,"viability, T/C",[32],111%
same,"viability, T/C",[33],100%
same,"viability, T/C",[34],116%
same,"viability, T/C",[35],111%
same,"viability, T/C",[36],99.7%
CC1(C)CCC(Nc2ncc(C(F)(F)F)c(-c3c[nH]c4c(P(C)(C)=O)c(C#N)ccc34)n2)CN1 (stereo not drawn) + CCn1c(-c2cc(N3CCN(C)CC3)cnc2C(C)OC)c2c3cc(ccc31)-c1csc(n1)CC(NC(=O)C1CC1C)C(=O)N1CCCC(N1)C(=O)OCC(C)(C)C2,IC50,second compound 0.000949 µM,2.87 nM
same,IC50,second compound 0.003 µM,2.98 nM
same,IC50,second compound 0.00949 µM,3.56 nM
same,IC50,second compound 0.03 µM,2.5 nM
same,IC50,second compound 0.0949 µM,3.54 nM
same,IC50,second compound 0.3 µM,2.87 nM
same,"viability, T/C","second compound 0.000949 µM, first compound 0.000949 µM",104%
same,"viability, T/C","second compound 0.000949 µM, first compound 0.003 µM",47.7%
same,"viability, T/C","second compound 0.000949 µM, first compound 0.00949 µM",24.2%
same,"viability, T/C","second compound 0.000949 µM, first compound 0.03 µM",16.2%
same,"viability, T/C","second compound 0.000949 µM, first compound 0.0949 µM",17.3%
same,"viability, T/C","second compound 0.000949 µM, first compound 0.3 µM",15.1%
same,"viability, T/C","second compound 0.003 µM, first compound 0.000949 µM",79.3%
same,"viability, T/C","second compound 0.003 µM, first compound 0.003 µM",49.8%
same,"viability, T/C","second compound 0.003 µM, first compound 0.00949 µM",25.2%
same,"viability, T/C","second compound 0.003 µM, first compound 0.03 µM",18.4%
same,"viability, T/C","second compound 0.003 µM, first compound 0.0949 µM",16%
same,"viability, T/C","second compound 0.003 µM, first compound 0.3 µM",17.5%
same,"viability, T/C","second compound 0.00949 µM, first compound 0.000949 µM",83.1%
same,"viability, T/C","second compound 0.00949 µM, first compound 0.003 µM",54.7%
same,"viability, T/C","second compound 0.00949 µM, first compound 0.00949 µM",23.2%
same,"viability, T/C","second compound 0.00949 µM, first compound 0.03 µM",15.7%
same,"viability, T/C","second compound 0.00949 µM, first compound 0.0949 µM",17.8%
same,"viability, T/C","second compound 0.00949 µM, first compound 0.3 µM",17.8%
same,"viability, T/C","second compound 0.03 µM, first compound 0.000949 µM",83.3%
same,"viability, T/C","second compound 0.03 µM, first compound 0.003 µM",43.7%
same,"viability, T/C","second compound 0.03 µM, first compound 0.00949 µM",23.4%
same,"viability, T/C","second compound 0.03 µM, first compound 0.03 µM",19.8%
same,"viability, T/C","second compound 0.03 µM, first compound 0.0949 µM",17.5%
same,"viability, T/C","second compound 0.03 µM, first compound 0.3 µM",18.3%
same,"viability, T/C","second compound 0.0949 µM, first compound 0.000949 µM",81.3%
same,"viability, T/C","second compound 0.0949 µM, first compound 0.003 µM",54%
same,"viability, T/C","second compound 0.0949 µM, first compound 0.00949 µM",26.2%
same,"viability, T/C","second compound 0.0949 µM, first compound 0.03 µM",19.4%
same,"viability, T/C","second compound 0.0949 µM, first compound 0.0949 µM",18.1%
same,"viability, T/C","second compound 0.0949 µM, first compound 0.3 µM",16.6%
same,"viability, T/C","second compound 0.3 µM, first compound 0.000949 µM",78.5%
same,"viability, T/C","second compound 0.3 µM, first compound 0.003 µM",48.9%
same,"viability, T/C","second compound 0.3 µM, first compound 0.00949 µM",23.7%
same,"viability, T/C","second compound 0.3 µM, first compound 0.03 µM",18.4%
same,"viability, T/C","second compound 0.3 µM, first compound 0.0949 µM",16%
same,"viability, T/C","second compound 0.3 µM, first compound 0.3 µM",17.2%
C=CC(=O)Nc1cc(Nc2nccc(-c3cn(C)c4ccccc34)n2)c(OC)cc1N(C)CCN(C)C + CCn1c(-c2cccnc2C(C)OC)c2c3cc(ccc31)N1CCOC(CC(NC(=O)C(C(C)C)N(C)C(=O)C3(F)CCN(C(=O)C#CC(C)(C)N(C)C)CC3)C(=O)N3CCCC(N3)C(=O)OCC(C)(C)C2)C1,IC50,second compound 0.000949 µM,> 1000 nM
same,IC50,second compound 0.003 µM,942 nM
same,IC50,second compound 0.00949 µM,> 1000 nM
same,IC50,second compound 0.03 µM,> 1000 nM
same,IC50,second compound 0.0949 µM,> 1000 nM
same,IC50,second compound 0.3 µM,848 nM
same,"viability, T/C",[1],104%
same,"viability, T/C",[2],103%
same,"viability, T/C",[3],107%
same,"viability, T/C",[4],84.9%
same,"viability, T/C",[5],95.9%
same,"viability, T/C",[6],56.3%
same,"viability, T/C",[7],99.3%
same,"viability, T/C",[8],99.9%
same,"viability, T/C",[9],108%
same,"viability, T/C",[10],95.4%
same,"viability, T/C",[11],94.1%
same,"viability, T/C",[12],47.1%
same,"viability, T/C",[13],95.8%
same,"viability, T/C",[14],97.8%
same,"viability, T/C",[15],102%
same,"viability, T/C",[16],94.8%
same,"viability, T/C",[17],91.4%
same,"viability, T/C",[18],59.9%
same,"viability, T/C",[19],107%
same,"viability, T/C",[20],105%
same,"viability, T/C",[21],106%
same,"viability, T/C",[22],110%
same,"viability, T/C",[23],90.2%
same,"viability, T/C",[24],58.3%
same,"viability, T/C",[25],105%
same,"viability, T/C",[26],98.2%
same,"viability, T/C",[27],92.3%
same,"viability, T/C",[28],96.6%
same,"viability, T/C",[29],92.2%
same,"viability, T/C",[30],57%
same,"viability, T/C",[31],84.8%
same,"viability, T/C",[32],67.8%
same,"viability, T/C",[33],77.7%
same,"viability, T/C",[34],76.1%
same,"viability, T/C",[35],71.4%
same,"viability, T/C",[36],46.4%
O=C(c1ccc(F)c(F)c1Nc1ccc(I)cc1F)N1CC(O)([C@@H]2CCCCN2)C1 + CCn1c(-c2cccnc2C(C)OC)c2c3cc(ccc31)N1CCOC(CC(NC(=O)C(C(C)C)N(C)C(=O)C3(F)CCN(C(=O)C#CC(C)(C)N(C)C)CC3)C(=O)N3CCCC(N3)C(=O)OCC(C)(C)C2)C1,IC50,second compound 0.000949 µM,3.75 nM
same,IC50,second compound 0.003 µM,3.67 nM
same,IC50,second compound 0.00949 µM,4.67 nM
same,IC50,second compound 0.03 µM,3.3 nM
same,IC50,second compound 0.0949 µM,< 3.16 nM
same,IC50,second compound 0.3 µM,< 3.16 nM
same,"viability, T/C",[1],53.5%
same,"viability, T/C",[2],36.4%
same,"viability, T/C",[3],29.6%
same,"viability, T/C",[4],23.9%
same,"viability, T/C",[5],16.6%
same,"viability, T/C",[6],12%
same,"viability, T/C",[7],52.9%
same,"viability, T/C",[8],35.4%
same,"viability, T/C",[9],26.5%
same,"viability, T/C",[10],22.4%
same,"viability, T/C",[11],15.9%
same,"viability, T/C",[12],11.8%
same,"viability, T/C",[13],55.8%
same,"viability, T/C",[14],39.3%
same,"viability, T/C",[15],27.3%
same,"viability, T/C",[16],21.6%
same,"viability, T/C",[17],15.7%
same,"viability, T/C",[18],12.7%
same,"viability, T/C",[19],50.5%
same,"viability, T/C",[20],35.5%
same,"viability, T/C",[21],21.8%
same,"viability, T/C",[22],20.4%
same,"viability, T/C",[23],15.6%
same,"viability, T/C",[24],12.4%
same,"viability, T/C",[25],44.8%
same,"viability, T/C",[26],35.4%
same,"viability, T/C",[27],28.3%
same,"viability, T/C",[28],18.2%
same,"viability, T/C",[29],15.6%
same,"viability, T/C",[30],13.4%
same,"viability, T/C",[31],33.8%
same,"viability, T/C",[32],29.3%
same,"viability, T/C",[33],20.9%
same,"viability, T/C",[34],16.6%
same,"viability, T/C",[35],13.6%
same,"viability, T/C",[36],10.7%
